According to patent US10370371B2, “Substituted pyrimidine Bmi-1 inhibitors” (PTC Therapeutics, Inc., priority 2013, dated 2019):

Test system: Bmi-1 protein
Experiment: Sandwich ELISA Assay (Bmi-1 protein level in HT-1080 cells)
Format: cell-based
In short: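 HT-1080 cells were treated with compounds (0.5% DMSO final) for 40-48 h at 37 °C. Lysates were assayed by sandwich ELISA: mouse anti-Bmi-1 capture, rabbit anti-Bmi-1 and HRP anti-rabbit detection, TMB read at OD450 (OD570 reference). Levels were quantified against a recombinant GST-Bmi-1 standard curve (125-8000 pg/mL).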

| SMILES | EC50 [µM] |
| --- | --- |
| CCc1nn2ccccc2c1-c1cc(N)nc(Nc2ccc(C(F)(F)F)cc2)n1 [Cpd 90, 6-(2-ethylpyrazolo[1,5-a]pyridin-3-yl)-N^2-[4-(trifluoromethyl)phenyl]pyrimidine-2,4-diamine] | 0.01 to 0.1 |
| CCc1nn2ccccc2c1-c1cc(N)nc(Nc2ccc(OC(F)F)cc2)n1 [Cpd 91, N^2-[4-(difluoromethoxy)phenyl]-6-(2-ethylpyrazolo[1,5-a]pyridin-3-yl)pyrimidine-2,4-diamine] | 0.01 to 0.1 |
| Nc1cc(-n2c(C3CC3)nc3cc(Cl)ccc32)nc(Nc2ccc(OC(F)F)cc2)n1 [Cpd 92, 6-(5-chloro-2-cyclopropyl-1H-benzimidazol-1-yl)-N^2-[4-(difluoromethoxy)phenyl]pyrimidine-2,4-diamine] | 0.01 to 0.1 |
| Nc1cc(-n2c(C3CC3)nc3ccc(Cl)cc32)nc(Nc2ccc(OC(F)F)cc2)n1 [Cpd 93, 6-(6-chloro-2-cyclopropyl-1H-benzimidazol-1-yl)-N^2-[4-(difluoromethoxy)phenyl]pyrimidine-2,4-diamine] | 0.01 to 0.1 |
| Cc1nc2ccccc2n1-c1nc(Nc2ccc(OC(F)F)cc2)nc(N)c1F [Cpd 94, N^2-[4-(difluoromethoxy)phenyl]-5-fluoro-6-(2-methyl-1H-benzimidazol-1-yl)pyrimidine-2,4-diamine] | 0.01 to 0.1 |
| CCc1nc2ccccc2n1-c1cc(N)nc(Nc2ccc(C(F)(F)F)nc2)n1 [Cpd 95, 6-(2-ethyl-1H-benzimidazol-1-yl)-N^2-[6-(trifluoromethyl)pyridin-3-yl]pyrimidine-2,4-diamine] | 0.01 to 0.1 |
| CCc1nc2cc(Cl)ccc2n1-c1cc(N)nc(Nc2ccc(C(F)(F)F)cc2)n1 [Cpd 96, 6-(5-chloro-2-ethyl-1H-benzimidazol-1-yl)-N^2-[4-(trifluoromethyl)phenyl]pyrimidine-2,4-diamine] | 0.1 to 3 |
| CCc1nc2ccc(Cl)cc2n1-c1cc(N)nc(Nc2ccc(C(F)(F)F)cc2)n1 [Cpd 97, 6-(6-chloro-2-ethyl-1H-benzimidazol-1-yl)-N^2-[4-(trifluoromethyl)phenyl]pyrimidine-2,4-diamine] | 0.01 to 0.1 |
| Nc1cc(-c2c(C(F)(F)F)nn3ccccc23)nc(Nc2ccc(C(F)(F)F)cc2)n1 [Cpd 98, N^2-[4-(trifluoromethyl)phenyl]-6-[2-(trifluoromethyl)pyrazolo[1,5-a]pyridin-3-yl]pyrimidine-2,4-diamine] | 0.01 to 0.1 |
| Cc1nc2ncc(F)cc2n1-c1cc(N)nc(Nc2ccc(C(F)(F)F)cc2)n1 [Cpd 100, 6-(6-fluoro-2-methyl-1H-imidazo[4,5-b]pyridin-1-yl)-N^2-[4-(trifluoromethyl)phenyl]pyrimidine-2,4-diamine] | 0.001 to 0.01 |
| Cc1nc2ncc(F)cc2n1-c1cc(N)nc(Nc2ccc(OC(F)F)cc2)n1 [Cpd 101, N^2-[4-(difluoromethoxy)phenyl]-6-(6-fluoro-2-methyl-1H-imidazo[4,5-b]pyridin-1-yl)pyrimidine-2,4-diamine] | 0.001 to 0.01 |
| Cc1nc2cc(F)ccc2n1-c1cc(N)nc(Nc2ccc(C(F)(F)F)cc2)n1 [Cpd 102, 6-(5-fluoro-2-methyl-1H-benzimidazol-1-yl)-N^2-[4-(trifluoromethyl)phenyl]pyrimidine-2,4-diamine] | 0.01 to 0.1 |
| CCc1nc2cc(F)ccc2n1-c1cc(N)nc(Nc2ccc(C(F)(F)F)cc2)n1 [Cpd 104, 6-(2-ethyl-5-fluoro-1-benzimidazol-1-yl)-N^2-[4-(trifluoromethyl)phenyl]pyrimidine-2,4-diamine] | 0.01 to 0.1 |
| Nc1cc(-c2c(C3CC3)nn3ccc(F)cc23)nc(Nc2ccc(C(F)(F)F)cc2)n1 [Cpd 107, 6-(2-cyclopropyl-5-fluoropyrazolo[1,5-a]pyridin-3-yl)-N^2-[4-(trifluoromethyl)phenyl]pyrimidine-2,4-diamine] | 0.1 to 3 |
| Cc1nc2c(cc(F)c[n+]2[O-])n1-c1cc(N)nc(Nc2ccc(C(F)(F)F)cc2)n1 [Cpd 108, 6-(6-fluoro-2-methyl-4-oxido-1H-imidazo[4,5-b]pyridin-1-yl)-N^2-[4-(trifluoromethyl)phenyl]pyrimidine-2,4-diamine] | 0.1 to 3 |
| Cc1nn2ccc(F)cc2c1-c1cc(N)nc(Nc2ccc(C(F)(F)F)cc2)n1 [Cpd 109, 6-(5-fluoro-2-methylpyrazolo[1,5-a]pyridin-3-yl)-N^2-[4-(trifluoromethyl)phenyl]pyrimidine-2,4-diamine] | 0.01 to 0.1 |
| Cc1nc2ccccc2n1-c1cc(N)[n+]([O-])c(Nc2ccc(C(F)(F)F)cc2)n1 [Cpd 110, 6-(2-methyl-1H-benzimidazol-1-yl)-N^2-[4-(trifluoromethyl)phenyl]pyrimidine-2,4-diamine 3-oxide] | 0.1 to 3 |
| Cc1nc2ccc(F)cc2n1-c1cc(N)[n+]([O-])c(Nc2ccc(C(F)(F)F)cc2)n1 [Cpd 112, 6-(6-fluoro-2-methyl-1H-benzimidazol-1-yl)-N^2-[4-(trifluoromethyl)phenyl]pyrimidine-2,4-diamine 3-oxide] | 0.1 to 3 |
| COc1ccn2nc(C)c(-c3cc(Cl)nc(Nc4ccc(C(F)(F)F)cc4)n3)c2c1 [Cpd 113, 4-chloro-6-(5-methoxy-2-methylpyrazolo[1,5-a]pyridin-3-yl)-N-[4-(trifluoromethyl)phenyl]pyrimidin-2-amine] | 0.01 to 0.1 |
| COc1ccn2nc(C)c(-c3cc(N)nc(Nc4ccc(C(F)(F)F)cc4)n3)c2c1 [Cpd 114, 6-(5-methoxy-2-methylpyrazolo[1,5-a]pyridin-3-yl)-N^2-[4-(trifluoromethyl)phenyl]pyrimidine-2,4-diamine] | 0.01 to 0.1 |

Continued, values first:

| EC50 [µM] | SMILES |
| --- | --- |
| 0.1 to 3 | Cc1nc2cc(F)c(F)cc2n1-c1cc(N)[n+]([O-])c(Nc2ccc(OC(F)F)cc2)n1 [Cpd 115, N^2-[4-(difluoromethoxy)phenyl]-6-(5,6-difluoro-2-methyl-1H-benzimidazol-1-yl)pyrimidine-2,4-diamine 3-oxide] |
| 0.1 to 3 | Nc1cc(-n2c(C3CC3)nc3ccccc32)nc(Nc2ccc(C(F)(F)F)cc2)[n+]1[O-] [Cpd 116, 6-(2-cyclopropyl-1H-benzimidazol-1-yl)-N^2-[4-(trifluoromethyl)phenyl]pyrimidine-2,4-diamine 3-oxide] |
| 0.1 to 3 | CCc1nc2ccccc2n1-c1cc(N)[n+]([O-])c(Nc2ccc(C(F)(F)F)cc2)n1 [Cpd 118, 6-(2-ethyl-1H-benzimidazol-1-yl)-N^2-[4-(trifluoromethyl)phenyl]pyrimidine-2,4-diamine 3-oxide] |
| 0.1 to 3 | CCc1nc2ccc(F)cc2n1-c1cc(N)[n+]([O-])c(Nc2ccc(C(F)(F)F)cc2)n1 [Cpd 119, 6-(2-ethyl-6-fluoro-1H-benzimidazol-1-yl)-N^2-[4-(trifluoromethyl)phenyl]pyrimidine-2,4-diamine 3-oxide] |
| 0.01 to 0.1 | Cc1nn2ccc(N)cc2c1-c1cc(N)nc(Nc2ccc(C(F)(F)F)cc2)n1 [Cpd 120, 6-(5-amino-2-methylpyrazolo[1,5-a]pyridin-3-yl)-N^2-[4-(trifluoromethyl)phenyl]pyrimidine-2,4-diamine] |
| 0.01 to 0.1 | Cc1nn2ccc(Cl)cc2c1-c1cc(N)nc(Nc2ccc(OC(F)F)cc2)n1 [Cpd 121, 6-(5-chloro-2-methylpyrazolo[1,5-a]pyridin-3-yl)-N^2-[4-(difluoromethoxy)phenyl]pyrimidine-2,4-diamine] |
| 0.01 to 0.1 | Cc1nn2ccc(Cl)cc2c1-c1cc(N)nc(Nc2ccc(C(F)(F)F)cc2)n1 [Cpd 122, 6-(5-chloro-2-methylpyrazolo[1,5-a]pyridin-3-yl)-N^2-[4-(trifluoromethyl)phenyl]pyrimidine-2,4-diamine] |
| 0.01 to 0.1 | CSc1nc2ccccc2n1-c1cc(N)nc(Nc2ccc(C(F)(F)F)cc2)n1 [Cpd 123, 6-[2-(methylsulfanyl)-1H-benzimidazol-1-yl]-N^2-[4-(trifluoromethyl)phenyl]pyrimidine-2,4-diamine] |
| 0.01 to 0.1 | CCc1nn2ccc(Cl)cc2c1-c1cc(N)nc(Nc2ccc(C(F)(F)F)cc2)n1 [Cpd 124, 6-(5-chloro-2-ethylpyrazolo[1,5-a]pyridin-3-yl)-N^2-[4-(trifluoromethyl)phenyl]pyrimidine-2,4-diamine] |
| 0.01 to 0.1 | CCc1nn2ccc(Cl)cc2c1-c1cc(N)nc(Nc2ccc(OC(F)F)cc2)n1 [Cpd 125, 6-(5-chloro-2-ethylpyrazolo[1,5-a]pyridin-3-yl)-N^2-[4-(difluoromethoxy)phenyl]pyrimidine-2,4-diamine] |
| 0.1 to 3 | Cc1cccc(Nc2nc(N)cc(-n3c(C)nc4ccccc43)n2)c1 [Cpd 127, 6-(2-methyl-1H-benzimidazol-1-yl)-N^2-(3-methylphenyl)pyrimidine-2,4-diamine] |
| 0.001 to 0.01 | Cc1ccc(Nc2nc(N)cc(-n3c(C)nc4ccccc43)n2)cc1 [Cpd 128, 6-(2-methyl-1H-benzimidazol-1-yl)-N^2-(4-methylphenyl)pyrimidine-2,4-diamine] |
| 0.01 to 0.1 | Cc1nc2ccccc2n1-c1cc(N)nc(Nc2ccc(Br)cc2)n1 [Cpd 131, N^2-(4-bromophenyl)-6-(2-methyl-1H-benzimidazol-1-yl)pyrimidine-2,4-diamine] |
| 0.1 to 3 | Cc1nc2ccccc2n1-c1cc(N)nc(Nc2ccc([N+](=O)[O-])cc2)n1 [Cpd 132, 6-(2-methyl-1H-benzimidazol-1-yl)-N^2-(4-nitrophenyl)pyrimidine-2,4-diamine] |
| 0.001 to 0.01 | COc1ccc(Nc2nc(N)cc(-n3c(C)nc4ccc(F)cc43)n2)cc1 [Cpd 133, 6-(6-fluoro-2-methyl-1H-benzimidazol-1-yl)-N^2-(4-methoxyphenyl)pyrimidine-2,4-diamine] |
| 0.001 to 0.01 | Cc1nc2ccccc2n1-c1cc(N)nc(Nc2ccc(N(C)C)cc2)n1 [Cpd 144, N^2-[4-(dimethylamino)phenyl]-6-(2-methyl-1H-benzimidazol-1-yl)pyrimidine-2,4-diamine] |
| 0.1 to 3 | Cc1nc2ccccc2n1-c1cc(N)nc(Nc2ccc(C#N)cc2)n1 [Cpd 145, 4-{[4-amino-6-(2-methyl-1H-benzimidazol-1-yl)pyrimidin-2-yl]amino}benzonitrile] |
| 0.1 to 3 | Cc1nc2ccccc2n1-c1cc(N)nc(Nc2ccc(OC(F)(F)F)cc2)n1 [Cpd 146, 6-(2-methyl-1H-benzimidazol-1-yl)-N^2-[4-(trifluoromethoxy)phenyl]pyrimidine-2,4-diamine] |
